{"source": "patent US9068017B2", "about": "“Compositions and methods for inhibiting terminal transferase activity” (IBIS BIOSCIENCES, INC., priority 2010, dated 2015)", "tested_on": "polymerase having terminal transferase activity", "description": "PCR products with and without boric acid added to PCR components and reagents prior to thermal cycling steps were compared. Stock boric acid was dissolved in 50% primer dilution buffer and added to PCR reactions for a final concentration of 100 mM boric acid and 200 mM boric acid."}
{"smiles": "OB(O)O", "note": "[boric acid]", "values": [{"measurement": "3′ non-template addition of amplicons resulting from polymerase dependent terminal transferase activity", "setting": "addition of boric acid to amplification reactions, summary statement, no concentration given", "result": "reduced 3′ non-template addition"}, {"measurement": "non-template addition on forward and reverse strands of PCR products", "setting": "boric acid added before thermal cycling, final concentration 100 mM and 200 mM, mass spectrometry (FIG. 1), non-template addition identified in absence of boric acid", "result": "undetectable non-template addition on both the forward and reverse strands"}]}
